The values that follow come from ChEMBL document CHEMBL5223128, “Biphenyl-based small molecule inhibitors: Novel cancer immunotherapeutic agents targeting PD-1/PD-L1 interaction” (Bioorg Med Chem, 2022).

The target of assay [1] is Programmed cell death protein 1 (Homo sapiens, UniProt Q15116). The assay can be described thus: Binding affinity to human PD-1 assessed as dissociation constant by SPR assay. (In SPR one partner is held on a chip, and binding of the other changes the refractive index at the surface.)
The target in assay [2] is Programmed cell death 1 ligand 1 (Homo sapiens, UniProt Q9NZQ7). The assay can be described thus: Binding affinity to human PDL1 assessed as dissociation constant by MST method.
For assay [3], the target named is T1, Programmed cell death protein 1/Programmed cell death 1 ligand 1 (Homo sapiens, UniProt Q9NZQ7). The assay can be described thus: Inhibition of human PD-1/PDL1 protein-protein interaction by HTRF assay. In kind it is protein-complex assay. In general terms: In TR-FRET formats the signal depends on donor and acceptor labels being close together.
Assay [4] addresses T1, Programmed cell death protein 1/Programmed cell death 1 ligand 1. The assay can be described thus: Inhibition of human PD-1/PDL1 protein-protein interaction by luminescence proximity homogeneous assay. In kind it is protein-complex assay.

As usually defined, the Kd is the concentration at which binding is half-saturated. The IC50 is the point on the concentration scale where inhibition reaches its midpoint. High values mean weaker potency, low ones greater potency.

Each structure is given as a SMILES string.

T1 sequence (Q15116 whole entry): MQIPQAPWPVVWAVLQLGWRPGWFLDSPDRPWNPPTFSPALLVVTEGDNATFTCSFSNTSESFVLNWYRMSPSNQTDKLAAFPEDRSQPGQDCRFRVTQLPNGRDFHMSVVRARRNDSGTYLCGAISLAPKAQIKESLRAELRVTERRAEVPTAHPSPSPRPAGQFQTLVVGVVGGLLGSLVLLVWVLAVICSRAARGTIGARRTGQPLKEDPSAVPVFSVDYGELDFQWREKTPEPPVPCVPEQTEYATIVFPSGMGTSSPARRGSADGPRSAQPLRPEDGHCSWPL
T1 sequence (Q9NZQ7 whole entry): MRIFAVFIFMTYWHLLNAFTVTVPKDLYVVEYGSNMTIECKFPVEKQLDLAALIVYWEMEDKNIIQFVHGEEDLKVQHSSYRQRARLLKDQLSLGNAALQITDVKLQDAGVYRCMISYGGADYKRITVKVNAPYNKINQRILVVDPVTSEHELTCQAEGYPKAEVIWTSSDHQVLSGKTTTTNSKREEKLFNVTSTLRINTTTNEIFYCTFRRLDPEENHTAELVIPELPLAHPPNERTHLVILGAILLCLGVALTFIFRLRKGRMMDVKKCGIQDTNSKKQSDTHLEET
Chain of Programmed cell death 1 ligand 1 (Q9NZQ7 whole entry): as above
Chain of Programmed cell death protein 1 (Q15116 whole entry): as the sequence (Q15116 whole entry) above

With `O=C(O)[C@@H](CO)NCc1cc(Cl)c(OCc2cccc(-c3ccccc3)c2Br)cc1OCc1ccc2nonc2c1`, in assay [1], the dissociation constant (Kd) stood at 3.34 nM. On to `Cc1c(-c2ccccc2)cccc1N1C(=O)c2cc(CN[C@H](C(=O)O)C(C)O)c(OCc3cccc(C#N)c3)cc2C1=O` (some centres undefined), for which, in assay [2], the Kd came out at 24.4 nM.

In the case of `Cc1c(COc2cc(OCc3ccc(OC(F)(F)F)cc3)c(N3CCCCC3C(=O)O)cc2Cl)cccc1-c1ccccc1` (centres undefined), the values for the IC50 in assay [3] and in assay [4] were 56.6 nM and 1500 nM, respectively.
